Active and inactive are the calls of the source. The rule behind the calls is not given here.
Columns and labels:
[1] = Toxicity in human T cells derived from human PBMC assessed as necrotic cells at 0.1 uM measured for 72 hrs by annexin V-FITC and PI staining based flow cytometry analysis (reference value: 0.48 to 0.56 %); settings: t-cell
AHH-1 [2] = assay: Induction of cell cycle arrest in human AHH-1 cells assessed as accumulation of cells at S phase at 100 nM incubated for 72 hrs by annexin V-FITC and PI staining based flow cytometry analysis; assay type: functional
[3] = Toxicity in human T cells derived from human PBMC assessed as late apoptotic cells at 2.5 uM measured for 72 hrs by annexin V-FITC and PI staining based flow cytometry analysis (reference value: 11.5 to 17.6%); settings: t-cell
[4] = Selectivity ratio of IC50 for human TERT-RPE1 cells to IC50 for human AHH-1 cells; assay type: functional
AHH-1 [5] = assay: Induction of cell cycle arrest in human AHH-1 cells assessed as accumulation of cells at G2/M phase at 2500 nM incubated for 72 hrs by annexin V-FITC and PI staining based flow cytometry analysis; assay type: functional
TERT-RPE1 [6] = assay: Induction of cell cycle arrest in human TERT-RPE1 cells assessed as accumulation of cells at G2/M phase at 100 nM incubated for 72 hrs by annexin V-FITC and PI staining based flow cytometry analysis; assay type: functional
[7] = Toxicity in human T cells derived from human PBMC assessed as late apoptotic cells at 1 uM measured for 72 hrs by annexin V-FITC and PI staining based flow cytometry analysis (reference value: 11.5 to 17.6%); settings: t-cell
[8] = Toxicity in NOD/SCID mouse assessed as tolerability at 100 mg/kg, po administered for 5 days; assay type: organism-based; settings: in vivo, 120 h, time 5 day
[9] = Toxicity in human T cells derived from human PBMC assessed as early apoptotic cells at 0.1 uM measured for 72 hrs by annexin V-FITC and PI staining based flow cytometry analysis (reference value: 9.70 to […]); settings: t-cell
[10] = Toxicity in human T cells derived from human PBMC assessed as viable cells at 2.5 uM measured for 72 hrs by annexin V-FITC and PI staining based flow cytometry analysis (reference value: 66.5 to 77.5 %); assay type: cell-based, T-cell; settings: read-out: Activity
[11] = Toxicity in human T cells derived from human PBMC assessed as viable cells at 1 uM measured for 48 hrs by annexin V-FITC and PI staining based flow cytometry analysis (reference value: 77.5 to 79.5 %); assay type: cell-based, T-cell; settings: read-out: Activity
TERT-RPE1 [12] = assay: Induction of cell cycle arrest in human TERT-RPE1 cells assessed as accumulation of cells at S phase at 1000 nM incubated for 72 hrs by annexin V-FITC and PI staining based flow cytometry analysis; assay type: functional
Z-138 = assay: Antiproliferative activity against human Z138 cells assessed as inhibition of cell growth measured for 72 hrs by MTT assay; assay type: functional, cell-based; settings: Z-138, 72 h
[13] = Toxicity in human T cells derived from human PBMC assessed as early apoptotic cells at 0.1 uM measured for 48 hrs by annexin V-FITC and PI staining based flow cytometry analysis (reference value: 6.75 to 8.22 %); settings: t-cell
[14] = Toxicity in human T cells derived from human PBMC assessed as late apoptotic cells at 1 uM measured for 48 hrs by annexin V-FITC and PI staining based flow cytometry analysis (reference value: 13.5 to […] %); settings: t-cell
TERT-RPE1 [15] = assay: Induction of cell cycle arrest in human TERT-RPE1 cells assessed as accumulation of cells at S phase at 2500 nM incubated for 72 hrs by annexin V-FITC and PI staining based flow cytometry analysis; assay type: functional
TERT-RPE1 [16] = assay: Induction of cell cycle arrest in human TERT-RPE1 cells assessed as accumulation of cells at G1 phase at 1000 nM incubated for 72 hrs by annexin V-FITC and PI staining based flow cytometry analysis; assay type: functional
TMD8 = assay: Antitumor activity against human TMD8 cells xenografted in NOD/SCID mouse assessed as reduction in tumor size at 100 mg/kg, po administered for 5 days; assay type: functional, organism-based; settings: time 5.0 day
[17] = Toxicity in human T cells derived from human PBMC assessed as viable cells at 2.5 uM measured for 48 hrs by annexin V-FITC and PI staining based flow cytometry analysis (reference value: 77.5 to 79.5 %); assay type: cell-based, T-cell; settings: read-out: Activity
[18] = Toxicity in human T cells derived from human PBMC assessed as early apoptotic cells at 1 uM measured for 48 hrs by annexin V-FITC and PI staining based flow cytometry analysis (reference value: 6.75 to 8.22 %); settings: t-cell
[19] = Toxicity in human T cells derived from human PBMC assessed as late apoptotic cells at 0.1 uM measured for 72 hrs by annexin V-FITC and PI staining based flow cytometry analysis (reference value: 11.5 to 17.6%); settings: t-cell
HeLa [20] = assay: Induction of cell cycle arrest in human HeLa cells assessed as accumulation of cells at S phase at 1000 nM incubated for 72 hrs by annexin V-FITC and PI staining based flow cytometry analysis; assay type: functional
AHH-1 [21] = assay: Induction of cell cycle arrest in human AHH-1 cells assessed as accumulation of cells at G1 phase at 100 nM incubated for 72 hrs by annexin V-FITC and PI staining based flow cytometry analysis; assay type: functional
[22] = Toxicity in human T cells derived from human PBMC assessed as necrotic cells at 1 uM measured for 72 hrs by annexin V-FITC and PI staining based flow cytometry analysis (reference value: 0.48 to 0.56 %); settings: t-cell
[23] = Toxicity in human T cells derived from human PBMC assessed as viable cells at 0.1 uM measured for 72 hrs by annexin V-FITC and PI staining based flow cytometry analysis (reference value: 66.5 to 77.5 %); assay type: cell-based, T-cell; settings: read-out: Activity
Tubulin (Homo sapiens) = Tubulin (Homo sapiens) (UniProt P68371+Q9H4B7+P0DPH7+P68366+Q13509+Q71U36+P04350+Q3ZCM7+P07437+P68363+Q9BQE3+Q6PEY2+Q13885+Q9BVA1+Q9BUF5); assay: Inhibition of [3H]colchicine binding to tubulin (unknown origin) at 1 to 5 uM relative to control; assay type: protein-complex assay; settings: dose 1-5 µM
[24] = Metabolic stability in mouse liver microsome assessed as intrinsic clearance measured upto 60 mins by LC-MS/MS analysis; assay type: ADME; settings: liver microsomes, read-out: CLH
HeLa [25] = assay: Induction of cell cycle arrest in human HeLa cells assessed as accumulation of cells at G1 phase at 1000 nM incubated for 72 hrs by annexin V-FITC and PI staining based flow cytometry analysis; assay type: functional
[26] = Toxicity in human T cells derived from human PBMC assessed as viable cells at 0.1 uM measured for 48 hrs by annexin V-FITC and PI staining based flow cytometry analysis (reference value: 77.5 to 79.5 %); assay type: cell-based, T-cell; settings: read-out: Activity
TERT-RPE1 [27] = assay: Induction of apoptosis in human RPE-1 cells assessed as early apoptotic cells at 100 to 2500 nM measured after 72 hrs by annexin V-FITC and PI staining based flow cytometry analysis; assay type: functional, cell-based; settings: dose 100-2500 nM
[28] = Toxicity in human T cells derived from human PBMC assessed as early apoptotic cells at 2.5 uM measured for 72 hrs by annexin V-FITC and PI staining based flow cytometry analysis (reference value: 9.70 to […]); settings: t-cell

Compound: COc1cc(C(=O)c2ccn(-c3ncnc4[nH]ccc34)c2)cc(OC)c1OC
- Activity [1]: 0.48%
- Activity (AHH-1 [2]): 27.2%
- Activity [3]: 12.7%
- Ratio IC50 [4]: 6.2
- Activity (AHH-1 [5]): 69.7%
- Activity (TERT-RPE1 [6]): 83%
- Activity [7]: 12%
- Activity [8]: Non-Toxic
- Activity [9]: 9.7%
- viability at 72 h, 2.5 µM [10]: 64.3%
- viability at 48 h, 1 µM [11]: 74.9%
- Activity (TERT-RPE1 [12]): 3.4%
- IC50 (Z-138): 23.6 nM
- Activity [13]: 5.88%
- Activity [14]: 12.7%
- Activity (TERT-RPE1 [15]): 7.3%
- Activity (TERT-RPE1 [16]): 13.3%
- Activity (TMD8): Active
- viability at 48 h, 2.5 µM [17]: 72.7%
- Activity [18]: 6.49%
- Activity [19]: 11.8%
- Activity (HeLa [20]): 44.1%
- Activity (AHH-1 [21]): 37.1%
- Activity [22]: 0.41%
- viability at 72 h, 0.1 µM [23]: 68.1%
- inhibition (Tubulin (Homo sapiens)): 85%
- microsomal CLint [24]: 96 µL/min/mg
- Activity (HeLa [25]): 22.2%
- viability at 48 h, 0.1 µM [26]: 75.4%
- Activity (TERT-RPE1 [27]): Active
- Activity [28]: 10.3%

Source: ChEMBL document CHEMBL5352470, “RS6077 induces mitotic arrest and selectively activates cell death in human cancer cell lines and in a lymphoma tumor in vivo” (Eur J Med Chem, 2023)
